# Reference: ChEMBL document CHEMBL5537178, “Discovery of TP0628103: A Highly Potent and Selective MMP-7 Inhibitor with Reduced OATP-Mediated Clearance Designed by Shifting Isoelectric Points” (J Med Chem, 2024)
# Active and inactive are the calls of the source. No cut-off for these calls is given here.
# Legend:
# [1] = Clearance in cynomolgus monkey at 1 mg/kg, iv; type: ADME, organism-based, Macaca fascicularis; conditions: in vivo
# [2] = Fraction unbound in human; type: ADME
# CYP1A2 = target: T1, CYP1A2 (Homo sapiens, UniProt P05177); experiment: Time dependent inhibition of CYP1A2 in human liver microsomes at 10 uM by LC-MS/MS analysis relative to control; type: ADME, Microsome; conditions: read-out: TDI
# T1 sequence (P05177 whole entry): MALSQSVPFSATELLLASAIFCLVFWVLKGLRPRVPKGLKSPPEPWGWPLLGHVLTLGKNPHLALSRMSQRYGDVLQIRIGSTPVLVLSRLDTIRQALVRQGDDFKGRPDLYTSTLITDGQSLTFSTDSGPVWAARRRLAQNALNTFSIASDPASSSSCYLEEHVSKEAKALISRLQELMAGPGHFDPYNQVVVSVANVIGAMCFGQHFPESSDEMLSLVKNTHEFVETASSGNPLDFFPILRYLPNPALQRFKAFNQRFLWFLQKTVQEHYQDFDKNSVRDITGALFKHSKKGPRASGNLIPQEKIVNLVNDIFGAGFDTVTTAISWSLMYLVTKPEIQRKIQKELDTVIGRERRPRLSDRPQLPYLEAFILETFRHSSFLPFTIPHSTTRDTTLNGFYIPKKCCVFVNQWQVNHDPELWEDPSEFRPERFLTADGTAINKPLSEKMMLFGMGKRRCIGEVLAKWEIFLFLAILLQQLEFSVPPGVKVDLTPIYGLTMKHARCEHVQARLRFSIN
# HepG2 = experiment: Cytotoxicity against human HepG2 cells at 10 uM; type: toxicity, cell-based; conditions: hepg2, 10 µM
# [3] = Fraction unbound in rat; type: ADME
# [4] = Clearance in Sprague-Dawley rat at 0.5 mg/kg, iv; type: ADME, organism-based; conditions: in vivo
# [5] = Plasma unbound drug concentration at steady state in UUO surgery-induced renal fibrosis C57BL/6J mouse model at 1 mg/kg/day, sc administered with mini osmotic pump measured after 3 days; type: ADME, organism-based; conditions: in vivo, 72 h, time 3 day
# CYP3A [6] = target: T2, CYP3A (Homo sapiens, UniProt P08684+P20815+P24462+Q9HB55); experiment: Time dependent inhibition of CYP3A in human liver microsomes using testosterone as substrate at 10 uM by LC-MS/MS analysis relative to control; type: ADME, Microsome; conditions: probe testosterone, read-out: TDI
# Collagenase 3 = Collagenase 3 (Homo sapiens, UniProt P45452); experiment: Inhibition of recombinant human MMP13 assessed as enzyme activity by measuring fluorescence using fluorogenic peptide substrate
# CYP2C9 [7] = target: T3, CYP2C9 (Homo sapiens, UniProt P11712); experiment: Time dependent inhibition of CYP2C9 in human liver microsomes at 10 uM by LC-MS/MS analysis relative to control; type: ADME, Microsome; conditions: read-out: TDI
# T3 sequence (P11712 whole entry): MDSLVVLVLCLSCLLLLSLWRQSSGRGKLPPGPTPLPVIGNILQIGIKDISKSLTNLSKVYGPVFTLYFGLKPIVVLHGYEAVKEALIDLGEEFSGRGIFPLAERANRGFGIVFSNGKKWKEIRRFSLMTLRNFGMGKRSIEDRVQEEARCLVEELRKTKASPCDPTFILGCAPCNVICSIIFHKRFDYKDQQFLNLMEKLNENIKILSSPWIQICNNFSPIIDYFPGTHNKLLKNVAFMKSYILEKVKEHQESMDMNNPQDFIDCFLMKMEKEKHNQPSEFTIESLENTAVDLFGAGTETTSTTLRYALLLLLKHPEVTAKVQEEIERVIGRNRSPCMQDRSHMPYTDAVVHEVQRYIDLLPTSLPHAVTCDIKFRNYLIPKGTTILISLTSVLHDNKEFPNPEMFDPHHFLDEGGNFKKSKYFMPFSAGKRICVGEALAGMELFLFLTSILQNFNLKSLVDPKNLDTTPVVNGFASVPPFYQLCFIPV
# CYP2C9 [8] = target: T3, CYP2C9; experiment: Inhibition of CYP2C9 in human liver microsomes at 10 uM by LC-MS/MS analysis relative to control; type: ADME, Microsome
# Mus musculus = experiment: Antifibrotic effect in UUO surgery-induced renal fibrosis C57BL/6J mouse model assessed as reduction in renal collagen at 0.3 to 3 mg/kg/day, sc administered with mini osmotic pump measured after 7 days; type: functional, organism-based; conditions: dose 0.3-3 mg/kg/day, time 7.0 day
# [9] = Chemical stability of the compound in pH 4 aqueous solution assessed as degradation by measuring residual rate incubated for 24 hrs at 65 degC by HPLC analysis; type: physicochemical; conditions: read-out: Activity
# [10] = Plasma unbound drug concentration at steady state in UUO surgery-induced renal fibrosis C57BL/6J mouse model at 0.3 mg/kg/day, sc administered with mini osmotic pump measured after 3 days; type: ADME, organism-based; conditions: in vivo, 72 h, time 3 day
# [11] = Chemical stability of the compound in pH 4 aqueous solution assessed as degradation by measuring residual rate incubated measured after 2 weeks at 65 degC by HPLC analysis; type: physicochemical; conditions: read-out: Stability
# Neutrophil collagenase = Neutrophil collagenase (Homo sapiens, UniProt P22894); experiment: Inhibition of recombinant human MMP8 assessed as enzyme activity by measuring fluorescence using fluorogenic peptide substrate
# Sequence of Neutrophil collagenase (P22894 whole entry): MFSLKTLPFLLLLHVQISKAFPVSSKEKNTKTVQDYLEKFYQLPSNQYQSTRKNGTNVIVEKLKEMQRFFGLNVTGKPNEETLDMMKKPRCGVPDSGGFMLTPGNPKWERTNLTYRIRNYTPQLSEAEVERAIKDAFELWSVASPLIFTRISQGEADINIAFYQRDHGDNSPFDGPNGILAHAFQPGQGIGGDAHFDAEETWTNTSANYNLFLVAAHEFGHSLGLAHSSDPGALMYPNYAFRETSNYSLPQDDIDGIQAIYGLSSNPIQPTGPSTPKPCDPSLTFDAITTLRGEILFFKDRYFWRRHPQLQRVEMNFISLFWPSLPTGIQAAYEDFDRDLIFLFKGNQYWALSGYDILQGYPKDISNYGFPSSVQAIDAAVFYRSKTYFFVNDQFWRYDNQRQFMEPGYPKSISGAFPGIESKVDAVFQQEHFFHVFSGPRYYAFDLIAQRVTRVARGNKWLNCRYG
# CYP2C19 = CYP2C19 (Homo sapiens, UniProt P33261); experiment: Time dependent inhibition of CYP2C19 in human liver microsomes at 10 uM by LC-MS/MS analysis relative to control; type: ADME, Microsome; conditions: read-out: TDI
# Sequence of CYP2C19 (P33261 whole entry): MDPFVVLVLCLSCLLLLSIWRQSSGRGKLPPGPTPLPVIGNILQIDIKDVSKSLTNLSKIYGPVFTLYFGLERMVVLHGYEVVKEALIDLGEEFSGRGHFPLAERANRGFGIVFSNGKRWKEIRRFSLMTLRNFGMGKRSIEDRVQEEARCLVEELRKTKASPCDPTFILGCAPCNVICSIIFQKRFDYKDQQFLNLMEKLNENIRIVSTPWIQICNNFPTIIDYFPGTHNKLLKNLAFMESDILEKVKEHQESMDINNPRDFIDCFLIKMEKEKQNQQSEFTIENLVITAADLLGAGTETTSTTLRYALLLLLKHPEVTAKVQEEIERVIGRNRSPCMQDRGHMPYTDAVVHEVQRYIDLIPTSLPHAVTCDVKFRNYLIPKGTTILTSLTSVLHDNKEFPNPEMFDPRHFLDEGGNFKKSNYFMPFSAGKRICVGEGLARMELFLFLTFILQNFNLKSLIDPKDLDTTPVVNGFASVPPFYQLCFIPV
# [12] = Plasma unbound drug concentration at steady state in UUO surgery-induced renal fibrosis C57BL/6J mouse model at 0.1 mg/kg/day, sc administered with mini osmotic pump measured after 3 days; type: ADME, organism-based; conditions: in vivo, 72 h, time 3 day
# CYP2B6 = target: T4, CYP2B6 (Homo sapiens, UniProt P20813); experiment: Time dependent inhibition of CYP2B6 in human liver microsomes at 10 uM by LC-MS/MS analysis relative to control; type: ADME, Microsome; conditions: read-out: TDI
# T4 sequence (P20813 whole entry): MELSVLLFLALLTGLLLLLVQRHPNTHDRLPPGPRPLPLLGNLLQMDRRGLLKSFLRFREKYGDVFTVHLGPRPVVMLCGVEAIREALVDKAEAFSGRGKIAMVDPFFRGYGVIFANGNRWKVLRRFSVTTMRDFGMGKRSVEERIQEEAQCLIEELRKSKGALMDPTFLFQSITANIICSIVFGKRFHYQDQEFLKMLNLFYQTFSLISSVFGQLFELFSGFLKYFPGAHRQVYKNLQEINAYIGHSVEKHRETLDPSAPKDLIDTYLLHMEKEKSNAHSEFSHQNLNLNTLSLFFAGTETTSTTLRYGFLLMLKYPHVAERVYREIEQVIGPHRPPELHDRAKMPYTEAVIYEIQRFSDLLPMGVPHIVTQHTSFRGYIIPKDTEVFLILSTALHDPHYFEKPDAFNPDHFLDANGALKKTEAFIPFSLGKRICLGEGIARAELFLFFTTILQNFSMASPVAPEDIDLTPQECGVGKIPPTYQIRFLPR
# [13] = Fraction unbound in monkey; type: ADME, Macaca mulatta; conditions: rhesus monkey
# [14] = Inhibition of recombinant mouse MMP1 assessed as enzyme activity by measuring fluorescence using fluorogenic peptide substrate
# CYP3A [15] = target: T2, CYP3A; experiment: Inhibition of CYP3A in human liver microsomes using testosterone as substrate at 10 uM by LC-MS/MS analysis relative to control; type: ADME, Microsome; conditions: probe testosterone
# [16] = Chemical stability of the compound in pH 7.4 aqueous solution assessed as degradation by measuring residual rate incubated for 24 hrs at 65 degC by HPLC analysis; type: physicochemical; conditions: read-out: Activity
# [17] = Volume of distribution at steady state in cynomolgus monkey at 1 mg/kg, iv; type: ADME, organism-based, Macaca fascicularis; conditions: in vivo, read-out: Vdss
# [18] = target: Matrix metalloproteinase-14 (Homo sapiens, UniProt P50281); experiment: Inhibition of recombinant human MMP14 assessed as enzyme activity by measuring fluorescence using fluorogenic peptide substrate
# CYP2D6 = CYP2D6 (Homo sapiens, UniProt P10635); experiment: Inhibition of CYP2D6 in human liver microsomes at 10 uM by LC-MS/MS analysis relative to control; type: ADME, Microsome
# Sequence of CYP2D6 (P10635 whole entry): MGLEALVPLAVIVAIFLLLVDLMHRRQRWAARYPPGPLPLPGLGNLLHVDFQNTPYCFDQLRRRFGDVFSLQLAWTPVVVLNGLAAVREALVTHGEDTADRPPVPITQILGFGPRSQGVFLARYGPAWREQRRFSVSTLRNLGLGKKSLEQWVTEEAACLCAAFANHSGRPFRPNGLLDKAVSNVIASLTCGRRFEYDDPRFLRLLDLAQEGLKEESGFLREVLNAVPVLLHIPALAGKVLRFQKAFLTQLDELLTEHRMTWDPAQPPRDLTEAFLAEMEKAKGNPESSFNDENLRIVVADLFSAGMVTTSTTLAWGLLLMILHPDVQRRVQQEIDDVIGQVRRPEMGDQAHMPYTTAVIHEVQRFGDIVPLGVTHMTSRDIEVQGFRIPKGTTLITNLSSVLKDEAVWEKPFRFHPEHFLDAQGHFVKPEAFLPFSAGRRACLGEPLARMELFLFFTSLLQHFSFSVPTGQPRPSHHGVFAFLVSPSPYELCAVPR
# Stromelysin-1 = Stromelysin-1 (Homo sapiens, UniProt P08254); experiment: Inhibition of recombinant human MMP3 assessed as enzyme activity by measuring fluorescence using fluorogenic peptide substrate
# Sequence of Stromelysin-1 (P08254 whole entry): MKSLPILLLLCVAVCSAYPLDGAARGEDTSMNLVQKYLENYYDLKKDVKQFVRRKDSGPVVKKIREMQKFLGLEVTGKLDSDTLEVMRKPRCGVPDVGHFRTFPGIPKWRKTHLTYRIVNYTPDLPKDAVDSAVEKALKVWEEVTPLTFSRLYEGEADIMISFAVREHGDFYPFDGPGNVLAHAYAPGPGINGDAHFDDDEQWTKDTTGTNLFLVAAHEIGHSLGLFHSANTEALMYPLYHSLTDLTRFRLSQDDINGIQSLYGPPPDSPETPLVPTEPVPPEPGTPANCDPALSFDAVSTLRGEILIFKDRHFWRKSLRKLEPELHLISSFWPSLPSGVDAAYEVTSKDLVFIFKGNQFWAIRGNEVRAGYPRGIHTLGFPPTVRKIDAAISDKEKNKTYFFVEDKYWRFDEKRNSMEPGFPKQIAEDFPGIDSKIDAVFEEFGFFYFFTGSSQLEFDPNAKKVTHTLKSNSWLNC
# [19] = target: Matrix metalloproteinase-9 (Homo sapiens, UniProt P14780); experiment: Inhibition of recombinant human MMP9 assessed as enzyme activity by measuring fluorescence using fluorogenic peptide substrate
# Sequence of Matrix metalloproteinase-9 (P14780 whole entry): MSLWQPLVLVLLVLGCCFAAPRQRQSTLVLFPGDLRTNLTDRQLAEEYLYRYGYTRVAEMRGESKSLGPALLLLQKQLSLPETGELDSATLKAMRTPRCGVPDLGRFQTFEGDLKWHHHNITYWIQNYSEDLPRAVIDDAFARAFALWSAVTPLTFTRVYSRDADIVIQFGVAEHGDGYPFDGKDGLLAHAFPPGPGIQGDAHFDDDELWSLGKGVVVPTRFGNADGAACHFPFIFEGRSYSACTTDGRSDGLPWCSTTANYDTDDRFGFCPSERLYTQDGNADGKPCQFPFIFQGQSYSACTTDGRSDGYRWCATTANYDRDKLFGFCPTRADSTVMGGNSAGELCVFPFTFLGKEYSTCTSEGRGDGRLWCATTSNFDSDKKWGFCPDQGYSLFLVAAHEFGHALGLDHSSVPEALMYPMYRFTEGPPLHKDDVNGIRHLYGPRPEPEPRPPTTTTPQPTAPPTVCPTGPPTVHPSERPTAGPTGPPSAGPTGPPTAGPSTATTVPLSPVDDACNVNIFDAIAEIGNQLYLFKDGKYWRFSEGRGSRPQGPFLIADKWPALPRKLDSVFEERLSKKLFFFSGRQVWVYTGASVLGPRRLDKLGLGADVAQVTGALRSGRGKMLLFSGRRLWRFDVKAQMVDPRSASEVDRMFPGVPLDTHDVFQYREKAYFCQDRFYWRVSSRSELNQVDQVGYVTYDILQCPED
# [20] = target: Macrophage metalloelastase (Homo sapiens, UniProt P39900); experiment: Inhibition of recombinant human MMP12 assessed as enzyme activity by measuring fluorescence using fluorogenic peptide substrate
# Sequence of Macrophage metalloelastase (P39900 whole entry): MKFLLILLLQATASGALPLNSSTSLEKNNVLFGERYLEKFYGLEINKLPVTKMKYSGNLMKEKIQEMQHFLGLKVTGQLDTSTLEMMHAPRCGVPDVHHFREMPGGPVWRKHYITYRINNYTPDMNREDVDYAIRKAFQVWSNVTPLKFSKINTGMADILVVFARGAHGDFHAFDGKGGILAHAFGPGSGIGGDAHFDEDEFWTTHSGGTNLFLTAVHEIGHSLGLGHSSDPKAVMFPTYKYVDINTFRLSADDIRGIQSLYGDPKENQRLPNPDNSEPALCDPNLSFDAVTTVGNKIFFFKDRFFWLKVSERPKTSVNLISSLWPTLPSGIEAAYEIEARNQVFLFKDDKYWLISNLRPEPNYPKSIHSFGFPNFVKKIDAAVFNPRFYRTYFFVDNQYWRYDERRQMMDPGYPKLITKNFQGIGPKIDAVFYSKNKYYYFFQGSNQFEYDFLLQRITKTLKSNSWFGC
compound,measurement,setting,value
CC(C)(C)[C@H](NC(=O)[C@H](Cc1ccncc1)NC(=O)CNC(=O)CC[C@H](NS(=O)(=O)c1ccc(Cl)c(C(F)(F)F)c1)C(=O)O)C(=O)Nc1ccc(C(=O)N2CCC(C(=O)N[C@H](CCCCN)C(=O)N3CC[C@H](N)C3)CC2)cc1,clearance,[1],0.918 mL/min/kg
same,fraction unbound,[2],0.135
same,inhibition at 10 µM,CYP1A2,-5%
same,Activity,HepG2,Non-Toxic
same,fraction unbound,[3],0.178
same,clearance,[4],3.52 mL/min/kg
same,Cp(f),[5],15.6 nM
same,inhibition at 10 µM,CYP3A [6],-13.9%
same,IC50,Collagenase 3,> 10000 nM
same,inhibition at 10 µM,CYP2C9 [7],-11.5%
same,inhibition at 10 µM,CYP2C9 [8],0.5%
same,Activity,Mus musculus,Active
same,remaining at 24 h,[9],101%
same,Cp(f),[10],6.56 nM
same,remaining at 336 h,[11],98.2%
same,IC50,Neutrophil collagenase,> 10000 nM
same,inhibition at 10 µM,CYP2C19,4.8%
same,Cp(f),[12],1.32 nM
same,inhibition at 10 µM,CYP2B6,-4.8%
same,fraction unbound,[13],0.2
same,IC50,[14],4.1 nM
same,inhibition at 10 µM,CYP3A [15],2.5%
same,remaining at 24 h,[16],97.9%
same,Vd,[17],0.145 L/kg
same,IC50,[18],1700 nM
same,inhibition at 10 µM,CYP2D6,6.4%
same,IC50,Stromelysin-1,> 10000 nM
same,IC50,[19],> 10000 nM
same,IC50,[20],730 nM
